Reference: PMC5742531, “Bio-Catalytic Structural Transformation of Anti-cancer Steroid, Drostanolone Enanthate with Cephalosporium aphidicola and Fusarium lini, and Cytotoxic Potential Evaluation of Its Metabolites against Certain Cancer Cell Lines” (Frontiers in Pharmacology, 2017)
Like-named read-outs stand apart in the source and are kept apart here.

Tests used:
[1] = tested on: HeLa (human cervical carcinoma ATCC CCl-2); assay: MTT cytotoxicity assay, HeLa cell line; format: cell-based; settings: 24 h treatment, HeLa cells, read-out: HeLa cell line (Cervical cancer) IC50 ± SD
Experimental: (§1) The cytotoxicity of samples was measured against HeLa (human cervical carcinoma ATCC CCl-2), PC-3 (human prostate cancer ATCC CRL-1435), NCl-H460 (human lung carcinoma ATCC HTB-177), HCT116 (human colon cancer ATCC CCl-247), and 3T3 (control fibroblast normal ATCC CRL-1658) cell lines by using standard MTT assay. Cell lines were grown in DMEM F12 media, supplemented with 10% FBS under a 5% CO2 atmosphere at 37°C in an incubator.
(§2) The colorimetric assay MTT [3-(4, 5-dimethyl thiazol-2yl)-2, 5-diphenyl tetrazolium bromide] was used for the evaluation of cell metabolic activity. In this assay, the yellow MTT is reduced to purple formazon in the mitochondria of the living cells (Gerlier and Thomasset, [1986]). The more the living cells, the more the color and thus more absorbance is observed by colorimeter (Fesahat et al., [2015]). We have used this method to analyze the effect of our transformed products on cellular cytotoxicity against cancer cells. Around 10,000 cells of each cell line (HeLa, PC3, H460, HCT116 cancers, and 3T3 normal) were seeded in 96-well plates. After reaching 80–90% confluency, they were treated with various concentrations of compounds (25, 50, 75, 100, and 200 μM) for 24 h. All compounds were dissolved in sterile DMSO to make a 200 mM stock solution. The solution was filtered, and serial dilutions were made in growth medium. 600 μL of each dilution was used to treat 3 wells (triplicate of each) of 96 well plate i.e., 200 μL each. Each experiment was performed in three biological replicates. MTT was added, and incubated for 4 h. […] The Multiskan reader gives λmax at 540 nm in DMSO treated 3T3 fibroblast cells (that are more confluent in morphology) whereas in case of cancer cells, 570 nm gives λmax (Bonmati-Carrion et al., [2013]; Danihelová et al., [2013]). A broad range of epithelial carcinoma cell lines were used in this experiment where cisplatin was a common drug of choice. It targets DNA, interferes with cell division during mitosis and induces apoptosis (Eastman, [1999]). IC50 values were calculated to determine the minimum concentration required to kill 50% of the cells.
(§3) % Inhibition=100-(At-Ab)/(Ac-Ab) ×100% Cell survival=(At-Ab)/(Ac-Ab) ×100

[2] = tested on: PC-3 (human prostate cancer ATCC CRL-1435); assay: MTT cytotoxicity assay, PC-3 cell line; format: cell-based; settings: 24 h treatment, PC3 cells, read-out: PC3 cell line (Prostate cancer) IC50 ± SD
Experimental: as §1, §2, §3

[3] = tested on: NCl-H460 (human lung carcinoma ATCC HTB-177); assay: MTT cytotoxicity assay, H460 cell line; format: cell-based; settings: H460 cells, read-out: H460 cell line (Lung cancer) IC50 ± SD
Experimental: as §1, §2, §3

[4] = tested on: HCT116 (human colon cancer ATCC CCl-247); assay: MTT cytotoxicity assay, HCT116 cell line; format: cell-based; settings: HCT116 cells, read-out: HCT116 cell line (Colon cancer) IC50 ± SD
Experimental: as §1, §2, §3

[5] = tested on: 3T3 (control fibroblast normal ATCC CRL-1658); assay: MTT cytotoxicity assay, 3T3 normal cell line; format: cell-based; settings: 3T3 normal cells, read-out: 3T3 cell line (Mouse fibroblast) IC50 ± SD
Experimental: as §1, §2, §3

[6] = Homo sapiens, NCI-H460, 24 h treatment
[7] = Homo sapiens, HCT-116, 24 h treatment
[8] = Mus musculus, NIH3T3, 24 h treatment

Structure (SMILES)	IC50 ([1]; Homo sapiens) [µM]	IC50 ([2]; Homo sapiens, PC-3, 24 h) [µM]	IC50 [3, 6] [µM]	IC50 [4, 7] [µM]	IC50 [5, 8] [µM]	IC50 [2] [µM]	melting point [°C]	IC50 [1] [µM]	IC50 ([3]; 24 h treatment) [µM]	IC50 ([4]; 24 h treatment) [µM]	IC50 ([5]; 24 h treatment) [µM]
CCCCCCC(=O)OC1CCC2C3CCC4CC(=O)C(C)CC4(C)C3CCC12C (centres unmarked) [Compound 1, drostanolone enanthate]	54.7 ± 1.6	96.2 ± 3	5 ± 1.2	3.1 ± 3.2	> 150	–	–	–	–	–	–
C[C@@H]1C[C@@]2(C)[C@@H](CC[C@@H]3[C@@H]2CC[C@]2(C)[C@@H](O)CC[C@@]32O)C[C@@H]1O [Compound 2, 2α-methyl-3α,14α,17β-trihydroxy-5α-androstane]	64.3 ± 3	84.6 ± 6.4	44.4 ± 2	39.4 ± 2	> 150	–	–	–	–	–	–
C[C@@H]1C[C@@]2(C)[C@H](CC1=O)C[C@@H](O)[C@@H]1[C@@H]2CC[C@]2(C)C(=O)CC[C@@H]12 [Compound 3, 2α-methyl-7α-hydroxy-5α-androstan-3,17-dione]	58 ± 1	68 ± 1.2	16.7 ± 2.6	42.8 ± 1.2	> 150	68.1 ± 1.2	230 to 234	–	–	–	–
C[C@@H]1C[C@@]2(C)[C@@H](CC[C@@H]3[C@@H]2CC[C@]2(C)[C@@H](O)CC[C@@H]32)C[C@@H]1O [Compound 4, 2α-methyl-3α,17β-dihydroxy-5α-androstane]	49.5 ± 2.2	60.4 ± 0.9	12.4 ± 2.3	80.9 ± 1.6	> 150	–	242 to 245	–	–	–	–
CC1=C[C@@]2(C)C(=CC1=O)CC[C@@H]1[C@@H]2CC[C@]2(C)C(=O)CC[C@@H]12 [Compound 5, 2-methylandrosta-1,4-diene-3,17-dione]	39.8 ± 1.5	84 ± 3.1	–	30.4 ± 1.6	> 150	–	198 to 202	–	–	–	–
CC1=C[C@@]2(C)C(=CC1=O)CC[C@@H]1[C@@H]2[C@H](O)C[C@]2(C)C(=O)CC[C@@H]12 [Compound 6, 2-methylandrosta-11α-hydroxy-1,4-diene-3,17-dione]	40.7 ± 0.9	58.4 ± 1.6	33.2 ± 1	45.9 ± 4.2	> 150	–	230 to 234	–	–	–	–
CC1=C[C@@]2(C)C(=CC1=O)CC[C@@H]1[C@@H]2CC[C@]2(C)C(=O)CC[C@@]12O [Compound 7, 2-methylandrosta-14α-hydroxy-1,4-diene-3,17-dione]	43.9 ± 2.4	59.1 ± 2.6	38.5 ± 2.8	46.6 ± 3	> 150	–	224 to 228	–	–	–	–
CC1=C[C@@]2(C)[C@H](CC1=O)C[C@@H](O)[C@@H]1[C@@H]2CC[C@]2(C)C(=O)CC[C@@H]12 [Compound 8, 2-methylandrosta-7α-hydroxy-1-ene-3,17-dione]	19.6 ± 1.4	51.8 ± 3.4	26.4 ± 0.9	55 ± 1.9	74.6 ± 3.7	–	250 to 256	–	–	–	–
C[C@@H]1C[C@@]2(C)[C@@H](CC[C@@H]3[C@@H]2CC[C@]2(C)[C@@H](O)CC[C@@H]32)CC1=O [Compound 9, 2α -methyl-5α-androstane-17β-hydroxy-3-one]	25.1 ± 1.6	57.8 ± 3.2	31.8 ± 1.2	2.8 ± 0.2	62.1 ± 1.2	–	–	–	–	–	–
N.N.[Cl][Pt][Cl] [cisplatin, reference compound]	–	–	–	–	–	76.5 ± 1.2	–	40.1 ± 2	22.2 ± 2.1	11.2 ± 3.03	42.7 ± 0.8
